Laboratory results from patent US20260355196A1, “INHIBITORS AND DEGRADERS OF PIP4K PROTEIN” (Larkspur Biosciences, Inc., priority 2023, published 2026).

What follows are molecules tested against T1, PIP4K2C (Homo sapiens, UniProt Q8TBX8) (assay: HiBiT PIP4K2C degradation assay in MOLT-4 cells (endogenous PIP4K2C C-terminally tagged with HiBiT)). Settings: 6 hours of incubation time, rather than 24 hours; MOLT-4, top concentration 10 micromolar; read-out: HiBIT-degradation MOLT4 PIP4k2C DC50 (6 hours, marked *).
T1 sequence (Q8TBX8 1-421): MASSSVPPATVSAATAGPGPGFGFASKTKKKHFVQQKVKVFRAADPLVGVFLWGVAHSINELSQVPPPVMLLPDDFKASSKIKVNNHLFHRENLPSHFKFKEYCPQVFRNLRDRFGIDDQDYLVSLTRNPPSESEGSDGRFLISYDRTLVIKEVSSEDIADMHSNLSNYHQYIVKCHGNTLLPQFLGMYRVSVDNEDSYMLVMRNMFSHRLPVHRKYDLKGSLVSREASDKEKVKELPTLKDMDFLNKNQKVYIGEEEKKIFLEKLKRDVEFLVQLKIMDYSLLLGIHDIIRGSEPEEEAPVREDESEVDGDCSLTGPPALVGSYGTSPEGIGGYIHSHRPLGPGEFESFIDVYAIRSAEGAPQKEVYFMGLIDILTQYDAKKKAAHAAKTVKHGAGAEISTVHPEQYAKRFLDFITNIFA
Format: cell-based
Design: untagged in primary human PBMCs and monocyte-derived dendritic cells
Source text: Example B-2: HiBiT PIP4K2C degradation assay
Materials: MOLT-4, a human T lymphoblast cell line (see https://www.atcc.org/products/crl-1582, herein incorporated by reference in its entirety), was genetically engineered using CRISPR-Cas9 by Synthego Corporation (Redwood City, CA) to C-terminally tag endogenous PIP4K2C with HiBiT peptide. Following clonal selection, genotype was confirmed by Sanger sequencing. MO LT-4 were maintained using RPMI-1640 medium from Gibco (Grand Island, NY, catalog number 11875-085) supplemented with 10% fetal bovine serum (FBS) from VWR (Philadelphia, PA, catalog number 97068-085). For HiBiT assays the cells were resuspended in RPMI-1640 medium without phenol read from Gibco (Grand Island, NY, catalog number 11835-030) supplemented with 10% FBS. Nano-Glo® HiBiT Lytic Assay System was purchased from Promega (Madison, WI, Catalog number N3030). Cell culture flasks and 384-well microplates were purchased from Corning (Glendale, AZ).
To study PIP4K2C degradation, 384-well plates were plated with a 10-point dose response curve, 3-fold dilution, in duplicate with a top starting concentration of 10 micromolar. Subsequently 22,500 cells were added to each well and incubated at 37 C in 5% C02 for 24 hours or 6 hours. At the end of the incubation time, cells were treated with the Nano-Glo® HiBiT Lytic Detection System following the manufacturer's instructions. Luminescence was measured with a PHERAstar FSX plate reader (BMG Labtech, Cary, NC). The Levenberg-Marquardt algorithm was used to fit a Hill equation to dose-response data to calculate DC50 values (see Table 6).
Molecule `O=C1CCC(n2c(=O)oc3cc(N4CCC(CCN5CCN(C(=O)[C@@H]6CCC[C@H](Nc7ncc(F)c(-c8cccc(-n9ccccc9=O)c8)n7)C6)CC5)CC4)ccc32)C(=O)N1` (relative stereo) [Compound 386, 3-(6-(4-(2-(4-(cis-3-((5-fluoro-4-(3-(2-oxopyridin-1(2H)-yl)phenyl)pyrimidin-2-yl)amino)cyclohexane-1-carbonyl)piperazin-1-yl)ethyl)piperidin-1-yl)-2-oxobenzo[d]oxazol-3 (2H)-yl)piperidine-2,6-dione] has a DC50 of less than 500 nM. `O=C1CC[C@@H](Nc2ccc(C3CCN([C@H]4CC[C@H](NC(=O)[C@H]5CC[C@H](Nc6ncc(F)c(-c7cccc(-n8ccccc8=O)c7)n6)CC5)CC4)CC3)c(F)c2)C(=O)N1` (single isomer, unassigned) [Compound 418] showed a DC50 of less than 500 nM.

Same assay, conditions: 24 hours incubation, MOLT-4, top concentration 10 micromolar; read-out: HiBIT-degradation MOLT4 PIP4k2C 24 hours DC50
With `O=C1CCC(n2c(=O)oc3cc(N4CCC(CN5CCC(NC(=O)[C@H]6CCC[C@@H](Nc7ncc(F)c(-c8cccc(-n9ccccc9=O)c8)n7)C6)CC5)CC4)ccc32)C(=O)N1` (relative stereo) [Compound 320, cis-N-(1-((1-(3-(2,6-dioxopiperidin-3-yl)-2-oxo-2,3-dihydrobenzo[d]oxazol-6-yl)piperidin-4-yl)methyl)piperidin-4-yl)-3-((5-fluoro-4-(3-(2-oxopyridin-1(2H)-yl)phenyl)pyrimidin-2-yl)amino)cyclohexane-1-carboxamide] the DC50 was less than 500 nM. Molecule `Cn1nc(C2CCC(=O)NC2=O)c2ccc(N3CCC(CN4CCC(NC(=O)[C@H]5CCC[C@@H](Nc6ncc(F)c(-c7cccc(-n8ccccc8=O)c7)n6)C5)CC4)CC3)cc21` (relative stereo) [Compound 332, cis-N-(1-((1-(3-(2,6-dioxopiperidin-3-yl)-1-methyl-1H-indazol-6-yl)piperidin-4-yl)methyl)piperidin-4-yl)-3-((5-fluoro-4-(3-(2-oxopyridin-1(2H)-yl)phenyl)pyrimidin-2-yl)amino)cyclohexane-1-carboxamide] has a DC50 of less than 500 nM. Molecule `Cn1nc(C2CCC(=O)NC2=O)c2ccc(N3CCC(N4CCC(CNC(=O)[C@H]5CCC[C@@H](Nc6ncc(F)c(-c7cccc(-n8ccccc8=O)c7)n6)C5)CC4)CC3)cc21` (relative stereo) [Compound 333, cis-N-((1′-(3-(2,6-dioxopiperidin-3-yl)-1-methyl-1H-indazol-6-yl)-[1,4′-bipiperidin]-4-yl)methyl)-3-((5-fluoro-4-(3-(2-oxopyridin-1(2H)-yl)phenyl)pyrimidin-2-yl)amino)cyclohexane-1-carboxamide] has a DC50 of less than 500 nM. `O=C1CCC(Nc2ccc(N3CCC(CN4CCC(NC(=O)[C@H]5CCC[C@@H](Nc6ncc(F)c(-c7cccc(-n8ccccc8=O)c7)n6)C5)CC4)CC3)c(F)c2)C(=O)N1` (relative stereo) [Compound 336, cis-N-(1-((1-(4-((2,6-dioxopiperidin-3-yl)amino)-2-fluorophenyl)piperidin-4-yl)methyl)piperidin-4-yl)-3-((5-fluoro-4-(3-(2-oxopyridin-1(2H)-yl)phenyl)pyrimidin-2-yl)amino)cyclohexane-1-carboxamide] was tested, and the DC50 was less than 500 nM. With `O=C1CCC(Nc2ccc(C3CCN([C@H]4CC[C@@H](CNC(=O)[C@H]5CCC[C@@H](Nc6ncc(F)c(-c7cccc(-n8ccccc8=O)c7)n6)C5)CC4)CC3)c(F)c2)C(=O)N1` (relative stereo) [Compound 337, cis-N-((cis-4-(4-(4-((2,6-dioxopiperidin-3-yl)amino)-2-fluorophenyl)piperidin-1-yl)cyclohexyl)methyl)-3-((5-fluoro-4-(3-(2-oxopyridin-1(2H)-yl)phenyl)pyrimidin-2-yl)amino)cyclohexane-1-carboxamide] the DC50 was less than 500 nM. `Cn1c(=O)n(C2CCC(=O)NC2=O)c2ccc(C3CCN(CC[C@H]4CC[C@H](C(=O)N5CCC(Nc6ncc(Cl)c(-c7cccc(-c8ccc(F)cc8)c7)n6)CC5)CC4)CC3)cc21` (relative stereo) [Compound 338, trans-3-(5-(1-(2-(4-(4-((5-chloro-4-(4′-fluoro-[1,1′-biphenyl]-3-yl)pyrimidin-2-yl)amino)piperidine-1-carbonyl)cyclohexyl)ethyl)piperidin-4-yl)-3-methyl-2-oxo-2,3-dihydro-1H-benzo[d]imidazol-1-yl)piperidine-2,6-dione] showed a DC50 of less than 500 nM. Molecule `O=C1CCC(n2c(=O)oc3cc(N4CCN(CCC5CCN(C(=O)[C@@H]6CCC[C@H](Nc7ncc(F)c(-c8cccc(-n9ccccc9=O)c8)n7)C6)CC5)CC4)ccc32)C(=O)N1` (relative stereo) [Compound 342, cis-3-(6-(4-(2-(1-(3-((5-fluoro-4-(3-(2-oxopyridin-1(2H)-yl)phenyl)pyrimidin-2-yl)amino)cyclohexane-1-carbonyl)piperidin-4-yl)ethyl)piperazin-1-yl)-2-oxobenzo[d]oxazol-3 (2H)-yl)piperidine-2,6-dione] has a DC50 of less than 500 nM. `O=C1CCC(n2c(=O)oc3cc(C4CCN(CCC5(O)CCN(C(=O)[C@H]6CCC[C@@H](Nc7ncc(F)c(-c8cccc(-n9ccccc9=O)c8)n7)C6)CC5)CC4)ccc32)C(=O)N1` (relative stereo) [Compound 347, cis-3-(6-(1-(2-(1-(3-((5-fluoro-4-(3-(2-oxopyridin-1(2H)-yl)phenyl)pyrimidin-2-yl)amino)cyclohexane-1-carbonyl)-4-hydroxypiperidin-4-yl)ethyl)piperidin-4-yl)-2-oxobenzo[d]oxazol-3 (2H)-yl)piperidine-2,6-dione] gave a DC50 of less than 500 nM. `O=C1CCC(Nc2ccc(C3CCN(CCC4(O)CCN(C(=O)[C@H]5CCC[C@@H](Nc6ncc(F)c(-c7cccc(-n8ccccc8=O)c7)n6)C5)CC4)CC3)c(F)c2)C(=O)N1` (relative stereo) [Compound 348, cis-3-((3-fluoro-4-(1-(2-(1-(3-((5-fluoro-4-(3-(2-oxopyridin-1(2H)-yl)phenyl)pyrimidin-2-yl)amino)cyclohexane-1-carbonyl)-4-hydroxypiperidin-4-yl)ethyl)piperidin-4-yl)phenyl)amino)piperidine-2,6-dione] gave a DC50 of less than 500 nM. `O=C1CCC(n2c(=O)oc3cc(C4CCN([C@H]5CC[C@H](CNC(=O)[C@H]6CCC[C@@H](Nc7ncc(F)c(-c8cccc(-n9ccccc9=O)c8)n7)C6)CC5)CC4)ccc32)C(=O)N1` (relative stereo) [Compound 349, cis-trans-N-((4-(4-(3-(2,6-dioxopiperidin-3-yl)-2-oxo-2,3-dihydrobenzo[d]oxazol-6-yl)piperidin-1-yl)cyclohexyl)methyl)-3-((5-fluoro-4-(3-(2-oxopyridin-1(2H)-yl)phenyl)pyrimidin-2-yl)amino)cyclohexane-1-carboxamide] gave a DC50 of less than 500 nM. `O=C1CCC(Nc2ccc(N3CCN([C@H]4CC[C@H](CNC(=O)[C@H]5CCC[C@@H](Nc6ncc(F)c(-c7cccc(-n8ccccc8=O)c7)n6)C5)CC4)CC3)c(F)c2)C(=O)N1` (relative stereo) [Compound 352, cis-N-((trans-4-(4-(4-((2,6-dioxopiperidin-3-yl)amino)-2-fluorophenyl)piperazin-1-yl)cyclohexyl)methyl)-3-((5-fluoro-4-(3-(2-oxopyridin-1(2H)-yl)phenyl)pyrimidin-2-yl)amino)cyclohexane-1-carboxamide] gave a DC50 of less than 500 nM. `O=C1CCC(Nc2ccc(N3CCC(N4CCC(CNC(=O)[C@H]5CCC[C@@H](Nc6ncc(F)c(-c7cccc(-n8ccccc8=O)c7)n6)C5)CC4)CC3)c(F)c2)C(=O)N1` (relative stereo) [Compound 361, cis-N-((1′-(4-((2,6-dioxopiperidin-3-yl)amino)-2-fluorophenyl)-[1,4′-bipiperidin]-4-yl)methyl)-3-((5-fluoro-4-(3-(2-oxopyridin-1(2H)-yl)phenyl)pyrimidin-2-yl)amino)cyclohexane-1-carboxamide] gave a DC50 of less than 500 nM. Molecule `O=C1CCC(Nc2ccc(N3CCC(CN4CCC(NC(=O)[C@H]5CC[C@H](Nc6ncc(F)c(-c7cccc(-n8ccccc8=O)c7)n6)CC5)CC4)CC3)c(F)c2)C(=O)N1` (relative stereo) [Compound 375, trans-N-(1-((1-(4-((2,6-dioxopiperidin-3-yl)amino)-2-fluorophenyl)piperidin-4-yl)methyl)piperidin-4-yl)-4-((5-fluoro-4-(3-(2-oxopyridin-1(2H)-yl)phenyl)pyrimidin-2-yl)amino)cyclohexane-1-carboxamide] has a DC50 of less than 500 nM.
